# Measurements published in PMC3249654 (The Open Virology Journal, 2011).
# Values joined by “and” are separate entries in the source; they are usually repeats but may differ in a detail not shown here. Equal entries are not always repeated.
# Legend:
# [1] = test system: influenza A(H1N1) viruses; conditions: cited from earlier work
# [2] = test system: NA enzyme activity of influenza A(H1N1) viruses; assay type: biochemical, influenza A(H1N1) virus; conditions: read-out: IC50-values of outliers with reduced zanamivir susceptibility
SMILES,average prevalence of ORV in Europe [1] [%],IC50 [2]
CCOC(=O)C1=C[C@@H](OC(CC)CC)[C@H](NC(C)=O)[C@@H](N)C1 [oseltamivir],20.1,
CC(=O)N[C@H]1[C@H]([C@H](O)[C@H](O)CO)OC(C(=O)O)=C[C@@H]1N=C(N)N [zanamivir],,3.1 nM and 3.4 nM and 5.3 nM
